A short description of data set [1]: ProGem1 clinical study (NUC-1031 alone), intracellular dFdCTP pharmacokinetics. Type of data set: in vivo, human. The following applies: ProGem1 (n = 67), NUC-1031 as a single agent; no normalisation. An excerpt: (§1) ProGem1 was a first-time-in-human (FTIH), phase I, open label, two stage study to investigate the safety, tolerability, clinical efficacy, pharmacokinetics (PK) and pharmacodynamics (PD) of NUC-1031 given in two parallel dosing schedules in subjects with advanced solid malignancies (EudraCT Number: 2011-005232-26). Subjects had the following tumour types at study entry: colorectal cancer (7 subjects), unknown primary (3), ovarian cancer (12), breast cancer (4), pancreatic cancer (9), cholangiocarcinoma (7), endometrial cancer (3), cervical cancer (2), lung cancer (7), mesothelioma (3), oesophageal cancer (3), cancer of the fallopian tube (1), trophoblast (1), renal cancer (1), gastric cancer (1), anal cancer (1), cancer of the thymus (1) and osteosarcoma (1).

Data set [2] in a line: ABC-008 clinical study (NUC-1031 in combination with cisplatin), plasma pharmacokinetics. Type of data set: in vivo, human. How it is done:
Initial pharmacokinetic analysis was conducted on samples obtained from the first three patients on the ABC-008 clinical study.
Patient 1: —Metastatic Biliary Tract Carcinoma—Starting dose: 625 mg/m^2 (S)-NUC-1031+25 mg/m^2 cisplatin
Patient 2: —Metastatic Biliary Tract Carcinoma—Starting dose: 625 mg/m^2 (S)-NUC-1031+25 mg/m^2 cisplatin
Patient 3: —Metastatic Biliary Tract Carcinoma—Starting dose: 625 mg/m^2 (S)-NUC-1031+25 mg/m^2 cisplatin
Both NUC-1031 and cisplatin were administered on days 1 and 8 of a 21 day cycle.
An appropriate dosage of 625 mg/m^2 of NUC-1031 was prepared in a Luerlock syringe. The dosage given was based on the subject's height and weight using a standard body surface area (BSA) calculation. A polyethylene extension line was primed with up to 1.5 ml of Flushing Solution, prior to connecting the syringe containing NUC-1031 to the extension line.
The extension line was connected to the patient's Central Venous Access Device (CVAD), and NUC-1031 was injected at a rate of 20 ml/hour using a syringe pump.
Once the injection was complete the NUC-1031 syringe was disconnected from the extension line, and the extension line was then flushed with an additional volume of up to 3 ml of Flushing solution.

The subject of another data set is SK-OV3. Nature of the data set: CellTiter-Glo cytotoxicity assay, single agents (Stage 1). Type of data set: cell-based. The following applies: for IC50: Homo sapiens, SK-OV-3, CTG assay 72 h. How it is done:
(§2) A2780, SK-OV-3, OVCAR-3, NCI-H460, NCI-H1975, NCI-H2122, 5637 and HT1376 were cultured in RPMI Medium 1640 (Invitrogen-22400105) supplemented with 10% fetal bovine serum (FBS; Invitrogen-10099141). All the cell lines were maintained in a humidified incubator at 37° C. with 5% CO2. Cell culture media and supplements were purchased from Invitrogen, and tissue culture flasks were purchased from Corning, 96-well plates and 384-well plates were purchased from Greiner. CellTiter-Glo Luminescent Cell Viability Assay kits were purchased from Promega (Promega-G7573), cells counter Vi-Cell was purchased from Beckman, detection instrument Envision was purchased from PerkinElmer.
(§3) Paclitaxcel (used as a reference) and cisplatin were purchased from SELLECK, and they were of highest purity available. All compounds attained solubility in DMSO and when diluted into culture media. DMSO, compounds solutions and culture media were warmed to 37° C. for the solution preparation and dilutions.
(§4) Eight cell lines were allowed to adhere to 96-well plates overnight (100 μL/well), for drug treatments with 3.16 fold dilution, 9 dose points, triplicates or vehicle control, compound stock solutions were prepared in DMSO and added to the wells to give the indicated final drug concentrations. Final DMSO concentration was 0.5%. Cellular ATP concentrations were assessed by using the CellTiter-Glo Cell Viability Assay as per the manufacturer's instructions 72 h after drug addition.
(§5) In Stage 1 the IC50 (using 5 or more concentrations) of each individual compound (cisplatin, gemcitabine and NUC-1031) in the relevant cell lines was determined.
For orientation: Cellular ATP, detected with luciferase, serves as a proxy for viable cell number.

The test system of the next data set is NCI-H460. The data set is described as above. It is filed as cell-based. The following applies: CTG assay 72 h; for IC50: Homo sapiens. How it is done: as §2, §3, §4, §5
The next data set has as its system SKOV3 cells. Kind of data set: Sulforhodamine B (SRB) assay, single agent. Type of data set: cell-based. The following applies: 24 hours exposure, SRB assay on day 4. How it is done: SKOV3 cells were purchased from American Type Culture Collection (ATCC). They were cultured at 37° C. and 5% CO2 in Gibco™ RMPI Medium 1640+GlutaMAX™-I (Life Technologies; 61870-010) with 10% Gibco™ FBS (Life Technologies; 10270-106) and 1% Gibco™ Penicillin-Streptomycin (Life Technologies; Ser. No. 15/140,122), known as complete medium, in a cell culture flask. Cisplatin was purchased from TEVA UK Limited (PL 00289/1146). Fluvastatin and Sulforaphane were both purchased from Merck Millipore Corporation (Catalogue numbers 344096 and 574215 respectively). (S)-NUC-1031 was provided by NuCana® Ltd.
SKOV3 cells were plated at 250 cells in 200 μl per well in the middle 60 wells of Costar® 3596 96-well plates, with the outer 36 wells filled with 200 μl PBS each. The cells were allowed to grow in complete medium for 48 hours before different drug compounds were added in. For single agent, cisplatin, (S)-NUC-1031, fluvastatin and sulforaphane in complete medium at 10 different concentrations were added into the middle 60 wells (Day 0). Each concentration was loaded in sextuplicate. Cells were exposed to the compounds for 24 hours and the compounds were replaced by pure complete medium. The experiment with fluvastatin was repeated with 4-day exposure instead of 24 hours. The plates were fixed with 50 μl 25% TCA solution at 4° C. for 60 minutes on day 4 after the drug compounds were added for Sulforhodamine B assay (see below).
After adding the TCA solution, the plates were washed under running tap water 10 times and were allowed to dry in the oven at 50° C. The cells were then stained with 50 μl SRB dye, and the dye was washed off with 1% glacial acetic acid for 4 times 30 minutes after SRB addition. The plates were then dried in the oven. SRB dye was allowed to dissolve in 150 μl 10 mM Tris buffer solution for 60 minutes on a rocker. The plates were read on Biohit BP800 Microplate Reader (Biohit Healthcare) and the absorbance was measured at 540 nm. […]
On the technique in general: In SRB staining, fixed cells bind dye roughly in proportion to their protein.

Data set [3] can be described thus: ProGem1 clinical study (NUC-1031 alone), plasma pharmacokinetics. It is filed as in vivo, human.
Excerpt: as §1

Setting [4] is: ABC-008 (with cisplatin) compared to ProGem1 (single agent NUC-1031).
[5] abbreviates: absolute IC50, read-out: Ab IC50.

Structures are written as SMILES. Where two headings read alike, the source gives them in different places.

Take `C[C@H](NP(=O)(OC[C@H]1O[C@@H](n2ccc(N)nc2=O)C(F)(F)[C@H]1O)Oc1ccccc1)C(=O)OCc1ccccc1` (stereo partly drawn) [NUC-1031, 2′-Deoxy-2′,2′-difluoro-D-cytidine-5′-O-[phenyl (benzoxy-L-alaninyl)] phosphate]: in data set [1], the “Mean AUC0-24, intracellular dFdCTP” value is 1379.0 pmol/million cells · hr. In data set [1], the “Mean Cmax, intracellular dFdCTP” value came to 391.8 pmol/million cells. Also, the “AUC increase, NUC-1031 plasma” value in data set [2] (setting [4]) came out at 2.1 fold. Also, the “Cmax increase, NUC-1031 plasma” value in data set [2] (setting [4]) was found to be 1.9 fold. Moreover, the “increase in half-life, NUC-1031 plasma PK parameters” value in data set [2] (ABC-008 (with cisplatin) compared to single agent NUC-1031) came out at 3.6 fold. In addition, the entries for the “Max Inhibition_%” value in the data set with SK-OV3 (CTG assay 72 h) and in the data set on NCI-H460 were 61.59% and 91.98%, respectively. Further, the concentration for half-maximal inhibition (IC50) (as a rule, the point on the concentration scale where inhibition reaches its midpoint) with SK-OV3 (setting [5]) was 70 nM; in the data set on SK-OV3 (relative IC50, read-out: IC50), 60 nM; in the data set with NCI-H460 (setting [5]) it was 40 nM; in the data set with NCI-H460 (relative IC50, read-out: IC50), 40 nM; in the data set on SKOV3 cells, “could not be calculated due to unobservable inhibitory effects”. For the same compound, the “levels of the metabolite dFdU relative to gemcitabine” value in data set [3] (ProGem1, compared with levels normally associated with gemcitabine) is given as “less than half”. Besides, the clearance (commonly the rate of elimination divided by the concentration) in data set [3] (human, plasma, ProGem1 (n = 67), NUC-1031 as a single agent) is 86.7 mL/min. Also, the concentration in data set [3] (human, plasma, ProGem1 (n = 67), NUC-1031 as a single agent, no normalisation) peaked (Cmax) at 66.5 µg/mL. The AUC(0-t) in data set [3] (human, plasma, ProGem1 (n = 67), NUC-1031 as a single agent, no normalisation, read-out: Mean AUC0-24, plasma NUC-1031) was 66500 ng·h/mL. In addition, the half-life in data set [3] (human, plasma, ProGem1 (n = 67), NUC-1031 as a single agent, read-out: Mean terminal t1/2, plasma NUC-1031 (converted)) is 54 min. The time of peak concentration (Tmax) (in general, the time at which the peak concentration occurs) in data set [3] (human, plasma, ProGem1 (n = 67), NUC-1031 as a single agent, read-out: Median Tmax, plasma NUC-1031) stood at 30 min.

The values above are taken from patent US20190022117A1, “COMBINATION THERAPY” (NuCana plc, priority 2015, published 2019).
